Consider ten compounds from PubChem BioAssay (NCI).

Test systems include MALME-3M melanoma; OVCAR-3 ovarian; SNB-19 CNS; IGROV1 ovarian; RXF 393 renal; ACHN renal; RPMI-8226 leukemia; NCI/ADR-RES ovarian; HCT-15 colon; UO-31 renal; EKVX NSCLC; NCI-H226 lung; MDA-MB-231 breast; OVCAR-8 ovarian; SR leukemia.
Holding throughout (experiment): NCI tumour cell line growth inhibition, 48 h

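Growth conditions: 96-well plates. Treatment: test compound, 48 hours, 5 concentrations. Analysis: linear interpolation between bracketing concentrations; unreached endpoints set to highest concentration. Definition used: TGI = concentration required for complete inhibition of growth.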

Take `CC(C)=CCC/C(C)=C/Cc1cc(/C=C/c2cc(O)c(CC=C(C)C)c(O)c2)cc(O)c1O`: the TGI stood at 18.6 µM in the test on MALME-3M melanoma; 5.83 µM in the test with OVCAR-3 ovarian; 16.6 µM with SNB-19 CNS; 6.81 µM with IGROV1 ovarian; 8.65 µM with RXF 393 renal; 3.19 µM in the test on ACHN renal. Besides, the TGI is 3.68 µM in the test on RPMI-8226 leukemia; 13.3 µM with NCI/ADR-RES ovarian; 11.9 µM in the test on HCT-15 colon; 2.89 µM in the test with UO-31 renal; 7.46 µM with EKVX NSCLC; 23 µM in the test on NCI-H226 lung. For the same compound, the TGI in the test on MDA-MB-231 breast is 23.8 µM; with OVCAR-8 ovarian, 14.9 µM.

Turning to `COc1ccc(NC(=O)C2=C(SC)C(C#N)C(=O)N=C2N)cc1` (configuration not stated), the TGI with MALME-3M melanoma is 76.8 µM; with OVCAR-3 ovarian it was > 100 µM; with SNB-19 CNS, > 100 µM; with IGROV1 ovarian it was > 100 µM; in the test on RXF 393 renal it was > 100 µM; in the test on ACHN renal, > 100 µM. In addition, the TGI in the test on RPMI-8226 leukemia, in the test with HCT-15 colon, in the test with UO-31 renal, in the test on EKVX NSCLC, in the test on NCI-H226 lung and in the test on SR leukemia was > 100 µM each time. The TGI in the test with MDA-MB-231 breast was > 100 µM.

Regarding `CCCOC(=O)c1cc(C(=CCC[C@H]2CC[C@@]3(C)[C@@H](CC[C@@H]4[C@@H]3CC[C@]3(C)[C@@H](C(C)CCCC(C)C)CC[C@@H]43)C2)c2cc(Cl)c(O)c(C(=O)OCCC)c2)cc(Cl)c1O` (some centres not stated), the TGI with OVCAR-3 ovarian, with SNB-19 CNS, in the test on IGROV1 ovarian, in the test on RPMI-8226 leukemia, with NCI/ADR-RES ovarian and in the test on HCT-15 colon was > 50 µM in each case. The TGI in the test with EKVX NSCLC, in the test with NCI-H226 lung, in the test on MDA-MB-231 breast and in the test on OVCAR-8 ovarian was > 50 µM throughout.

In the case of `CCn1c(=O)c2c(=O)[nH][nH]c2c2ccccc21`, the TGI with MALME-3M melanoma, in the test on OVCAR-3 ovarian, in the test with SNB-19 CNS, with IGROV1 ovarian, with ACHN renal and in the test with RPMI-8226 leukemia was > 100 µM in each case. Moreover, the TGI with NCI/ADR-RES ovarian, in the test on HCT-15 colon, in the test on UO-31 renal, in the test on EKVX NSCLC, in the test on NCI-H226 lung and in the test on SR leukemia was > 100 µM in each case. For the same compound, the TGI in the test on MDA-MB-231 breast and in the test on OVCAR-8 ovarian was > 100 µM throughout.

For the compound `Oc1ccccc1C=Nc1ccc(Oc2ccc(Cl)cc2)c(Cl)c1`, the TGI in the test with MALME-3M melanoma is 44.2 µM; with OVCAR-3 ovarian, 38.5 µM; with SNB-19 CNS it was 49.6 µM; in the test with IGROV1 ovarian, > 100 µM; in the test on ACHN renal, 88.3 µM; in the test on RPMI-8226 leukemia, 81.1 µM. Further, the TGI with NCI/ADR-RES ovarian was found to be 47.5 µM; in the test on HCT-15 colon it was 36.6 µM; in the test with UO-31 renal it was 24.2 µM; with EKVX NSCLC it was 52 µM; with NCI-H226 lung, 93.9 µM; in the test with SR leukemia, 69.3 µM. Moreover, the figures for the TGI in the test with MDA-MB-231 breast and in the test on OVCAR-8 ovarian were 40.4 µM and 57.9 µM, respectively.

As for `C/C(C=O)=N\Nc1cc(C)c2ccccc2n1`, the TGI in the test with OVCAR-3 ovarian came out at 29.1 µM; in the test with SNB-19 CNS, 52 µM; in the test with IGROV1 ovarian it was 32.1 µM; in the test with RXF 393 renal, 43.1 µM; in the test with ACHN renal, 29.9 µM; in the test with RPMI-8226 leukemia, 39 µM. Further, the TGI in the test with NCI/ADR-RES ovarian came out at 31 µM; with HCT-15 colon, 26.3 µM; in the test with UO-31 renal, 28.1 µM; in the test on EKVX NSCLC, 33.7 µM; with SR leukemia it was 4.17 µM; in the test on MDA-MB-231 breast, 32.3 µM. This compound also returned a TGI in the test with OVCAR-8 ovarian of 34.8 µM.

As to `Cc1ccc(S(=O)(=O)N(c2ccccc2F)C2CCCCC2O)cc1` (configuration not stated), the TGI is > 100 µM with MALME-3M melanoma; 66.9 µM with OVCAR-3 ovarian; > 100 µM in the test on SNB-19 CNS; > 100 µM with ACHN renal; > 100 µM in the test with RPMI-8226 leukemia; > 100 µM with NCI/ADR-RES ovarian. The TGI in the test on HCT-15 colon is > 100 µM; in the test on UO-31 renal, > 100 µM; in the test on EKVX NSCLC, > 100 µM; in the test with NCI-H226 lung, > 100 µM; in the test on SR leukemia, 51.8 µM; with MDA-MB-231 breast, > 100 µM. Moreover, the TGI in the test on OVCAR-8 ovarian was > 100 µM.

On to `CSc1nc(C)cc(Nc2ccc(O)c(CN3CCCCC3)c2)n1`, for which the TGI in the test on MALME-3M melanoma, in the test with OVCAR-3 ovarian, with SNB-19 CNS, with IGROV1 ovarian, with RXF 393 renal and in the test with ACHN renal was > 100 µM each time. For the same compound, the TGI with RPMI-8226 leukemia is 71.4 µM; with NCI/ADR-RES ovarian, > 100 µM; in the test on HCT-15 colon, > 100 µM; in the test with UO-31 renal, > 100 µM; in the test with EKVX NSCLC it was 88.7 µM; in the test on NCI-H226 lung, 84.3 µM. For the same compound, the TGI in the test on SR leukemia and in the test on OVCAR-8 ovarian was > 100 µM each time.

On to `CC(=NNC(=S)Nc1ccccc1C)c1cccc(C(C)=NNC(=S)Nc2ccccc2C)n1`, for which the TGI is 76.9 µM with MALME-3M melanoma; > 100 µM in the test with SNB-19 CNS; > 100 µM in the test on IGROV1 ovarian; > 100 µM in the test on RXF 393 renal; 59.8 µM with ACHN renal; > 100 µM in the test with RPMI-8226 leukemia. Moreover, the TGI was > 100 µM with NCI/ADR-RES ovarian; > 100 µM in the test on HCT-15 colon; > 100 µM in the test on UO-31 renal; > 100 µM in the test on EKVX NSCLC; > 100 µM in the test on NCI-H226 lung; 12 µM in the test on SR leukemia. For the same compound, the TGI in the test with OVCAR-8 ovarian is > 100 µM.

For `O=C(Cc1ccccc1)N/N=C(/CCN1CCCC1)CC(c1ccccc1)c1c(O)c2ccccc2oc1=O` (configuration not stated), the TGI with MALME-3M melanoma, in the test on OVCAR-3 ovarian, with SNB-19 CNS, with IGROV1 ovarian, in the test on ACHN renal and with RPMI-8226 leukemia was > 100 µM in each case. Moreover, the TGI in the test on NCI/ADR-RES ovarian, with HCT-15 colon, in the test on UO-31 renal, in the test with EKVX NSCLC, in the test with NCI-H226 lung and in the test on SR leukemia was > 100 µM throughout. For the same compound, the TGI in the test with MDA-MB-231 breast and with OVCAR-8 ovarian was > 100 µM each time.
